Reference: patent US8901038B2, “Biphenyl-substituted cyclic ketoenols” (Bayer CropScience AG, priority 2010, dated 2014)

Columns and labels:
Boophilus microplus = Boophilus microplus test (BOOPMI injection); assay type: in vivo; conditions: application rate 20 μg/animal; injection into the abdomen; after 7 days
Protocol: Boophilus microplus Test (BOOPMI Injection)
(§1) • Solvent: Dimethyl sulphoxide
To produce a suitable preparation of active compound, 10 mg of active compound are mixed with 0.5 ml of solvent and the concentrate is diluted with solvent to the desired concentration. The solution of active compound is injected into the abdomen (Boophilus microplus) and the animals are transferred into dishes and stored in a climatized room. The efficacy is monitored for deposition of fertile eggs.
After 7 days, the effect in % is determined. 100% means that none of the ticks has laid any fertile eggs.

[1] = tested on: green peach aphid (Myzus persicae); test: Myzus test (MYZUPE spray treatment); assay type: in vivo; conditions: application rate 500 g/ha; Chinese cabbage leaf discs sprayed; after 6 days
Protocol: Myzus Test (MYZUPE Spray Treatment)
• Solvents: 78 parts by weight of acetone • 1.5 parts by weight of dimethylformamide • Emulsifier: 0.5 part by weight of alkylaryl polyglycol ether
To produce a suitable preparation of active compound, 1 part by weight of active compound is mixed with the stated amounts of solvent and emulsifier, and the concentrate is diluted with emulsifier-containing water to the desired concentration. Discs of Chinese cabbage (Brassica pekinensis) which are infested by all stages of the green peach aphid (Myzus persicae) are sprayed with an active compound preparation of the desired concentration. After 6 days, the effect in % is determined. 100% means that all aphids have been killed; 0% means that none of the aphids have been killed.

Lucilia cuprina larvae = test: Lucilia cuprina test (LUCICU); assay type: in vivo; conditions: application rate 100 ppm; treated horse meat; after 2 days
Protocol: Lucilia cuprina test (LUCICU)
as §1
To produce a suitable preparation of active compound, 10 mg of active compound are mixed with 0.5 ml of dimethyl sulphoxide and the concentrate is diluted with water to the desired concentration. Containers containing horse meat treated with the active compound preparation of the desired concentration are populated with about 20 Lucilia cuprina larvae.
After 2 days, the kill in % is determined. 100% means that all larvae have been killed; 0% means that none of the larvae have been killed.

[2] = tested on: caterpillars of the armyworm (Spodoptera frugiperda); test: Spodoptera frugiperda test (SPODFR spray treatment); assay type: in vivo; conditions: application rate 500 g/ha; maize leaf discs sprayed; after 7 days
Protocol: Spodoptera frugiperda Test (SPODFR Spray Treatment)
(§2) • Solvents: 78.0 parts by weight of acetone • 1.5 parts by weight of dimethylformamide • Emulsifier: 0.5 part by weight of alkylaryl polyglycol ether
To produce a suitable preparation of active compound, 1 part by weight of active compound is mixed with the stated amounts of solvent and emulsifier, and the concentrate is diluted with emulsified water to the desired concentration. Discs of maize leaves (Zea mays) are sprayed with an active compound preparation of the desired concentration and, after drying, populated with caterpillars of the armyworm (Spodoptera frugiperda).
After 7 days, the effect in % is determined. 100% means that all caterpillars have been killed; 0% means that none of the caterpillars have been killed.

Meloidogyne incognita = Meloidogyne incognita test (MELGIN); assay type: in vivo; conditions: application rate 20 ppm; lettuce roots; after 14 days
Protocol: Meloidogyne incognita Test (MELGIN)
as §2
To produce a suitable preparation of active compound, 1 part by weight of active compound is mixed with the stated amounts of solvents and emulsifier, and the concentrate is diluted with water to the desired concentration. Containers are filled with sand, solution of active compound, Meloidogyne incognita egg/larvae suspension and lettuce seeds. The lettuce seeds germinate and the plants develop. On the roots, galls are formed. After 14 days, the nematicidal activity is determined in % by the formation of galls. 100% means that no galls are found; 0% means that the number of galls on the treated plants corresponds to that of the untreated controls.

[3] = tested on: greenhouse red spider mite (Tetranychus urticae); test: Tetranychus test; OP-resistant (TETRUR spray treatment); assay type: in vivo; conditions: application rate 100 g/ha; bean leaf discs sprayed; after 6 days
Protocol: Tetranychus Test; OP-Resistant (TETRUR Spray Treatment)
as §2
To produce a suitable preparation of active compound, 1 part by weight of active compound is mixed with the stated amounts of solvent and emulsifier, and the concentrate is diluted with emulsifier-containing water to the desired concentration. Discs of bean leaves (Phaseolus vulgaris), which are infested by all stages of the greenhouse red spider mite (Tetranychus urticae) are sprayed with an active compound preparation of the desired concentration.
After 6 days, the effect in % is determined. 100% means that all spider mites have been killed; 0% means that none of the spider mites have been killed.

[4] = tested on: larvae of the mustard beetle (Phaedon cochleariae); test: Phaedon test (PHAECO spray treatment); assay type: in vivo; conditions: application rate 500 g/ha; Chinese cabbage leaf discs sprayed; after 7 days
Protocol: Phaedon Test (PHAECO Spray Treatment)
as §2
To produce a suitable preparation of active compound, one part by weight of active compound is mixed with the stated amounts of solvents and emulsifier, and the concentrate is diluted with emulsifier-containing water to the desired concentration. […].
After 7 days, the effect in % is determined. 100% means that all beetle larvae have been killed; 0% means that none of the beetle larvae have been killed.

[5] = Text: Use is made of leaves which, fully developed, are cut from apple trees of the cultivar Golden Delicious.
Only the cuticles, free from hairs and stoma, of the upper sides of the leaves are then used. They are washed repeatedly alternating with water and a buffer solution of pH 7. The clean cuticles obtained are then mounted on Teflon plates and smoothed and dried with a gentle stream of air.
In the next step, the cuticle membranes obtained in this manner are placed into stainless steel diffusion cells (=transport chambers) for membrane transport studies. To this end, the cuticles are placed with a pincette into the centre of the edges, coated with silicone fat, of the diffusion cells and closed with a ring, which is also treated with fat. The arrangement is chosen such that the morphological outside of the cuticles is facing outwards, i.e. exposed to air, whereas the original inside is facing the interior of the diffusion cell.
The diffusion cells are filled with a 30% strength ethylene glycol/water solution. To determine the penetration, in each case 10 μl of the spray liquor of the composition below are applied to the outside of the cuticles. The spray liquor is prepared using local tap water of medium hardness.
After the application of the spray liquors, the water is allowed to evaporate and the chambers are inverted and placed into thermostatic tubs in which temperature and atmospheric humidity over the cuticles can be adjusted using a gentle stream of air onto the cuticles with the spray coating (35° C., 60% rh).

Cc1ccc(-c2ccc(Cl)cc2)c(Cl)c1C1=C(O)C2(CCOCC2)NC1=O [Example I-1-a-11]
efficacy (deposition of fertile eggs) (Boophilus microplus): 90%
efficacy (aphids killed) [1]: 100%
efficacy (kill of larvae) (Lucilia cuprina larvae): 100%
efficacy (caterpillars killed) [2]: 83%
efficacy (nematicidal activity by formation of galls) (Meloidogyne incognita): > 80%
efficacy (spider mites killed) [3]: 100%

CCc1c(-c2ccc(F)cc2)ccc(C)c1C1=C(O)C2(CCOCC2)NC1=O [Example I-1-a-10]
efficacy (deposition of fertile eggs) (Boophilus microplus): 80%
efficacy (aphids killed) [1]: 100%
efficacy (kill of larvae) (Lucilia cuprina larvae): 90%
efficacy (spider mites killed) [3]: 100%

O=C1NC2(CCOCC2)C(O)=C1c1c(Cl)ccc(-c2ccc(Cl)cc2)c1Cl [Example I-1-a-2]
efficacy (deposition of fertile eggs) (Boophilus microplus): 95%
efficacy (aphids killed) [1]: 100%
efficacy (kill of larvae) (Lucilia cuprina larvae): 100%
efficacy (caterpillars killed) [2]: 100%

COC1CCC2(CC1)NC(=O)C(c1c(Cl)ccc(-c3ccc(F)cc3)c1C)=C2O (stereo not shown) [Example I-1-a-14]
efficacy (deposition of fertile eggs) (Boophilus microplus): 95%
efficacy (beetle larvae killed) [4]: 100%
efficacy (aphids killed) [1]: 100%
efficacy (kill of larvae) (Lucilia cuprina larvae): 100%
efficacy (caterpillars killed) [2]: 100%
efficacy (spider mites killed) [3]: 90%

Cc1ccc(-c2ccc(F)cc2)c(Cl)c1C1=C(O)C2(CCOCC2)NC1=O [Example I-1-a-12]
efficacy (deposition of fertile eggs) (Boophilus microplus): 95%
efficacy (beetle larvae killed) [4]: 100%
efficacy (aphids killed) [1]: 100%
efficacy (kill of larvae) (Lucilia cuprina larvae): 100%
efficacy (caterpillars killed) [2]: 100%
efficacy (spider mites killed) [3]: 100%

Cc1c(-c2ccc(F)cc2)ccc(Cl)c1C1=C(O)C2(CCOCC2)NC1=O [Example I-1-a-13]
efficacy (deposition of fertile eggs) (Boophilus microplus): 80%
efficacy (aphids killed) [1]: 100%
efficacy (kill of larvae) (Lucilia cuprina larvae): 90%
efficacy (caterpillars killed) [2]: 100%
efficacy (spider mites killed) [3]: 100%

CCON1CCC2(CC1)NC(=O)C(c1c(CC)ccc(-c3ccc(Cl)cc3)c1CC)=C2O [Example I-1-a-25]
efficacy (beetle larvae killed) [4]: 100%
Penetration after 48 h/% EC + AS (0.7 g/l) [5]: 2%
Penetration after 48 h/% EC + RME (1 g/l) [5]: 4%
Penetration after 48 h/% EC + RME (1 g/l) + AS (0.7 g/l) [5]: 10%
efficacy (aphids killed) [1]: 100%
efficacy (spider mites killed) [3]: 100%
